Literature values in patent publication US11896701B2, “Method for dyeing keratin material, comprising the use of an organic C1-C6 alkoxy silane and tannic acid” (Henkel AG & Co. KGaA, priority 2019, dated 2024).
≈ marks a conversion by molar mass, not a printed value.

Details: 25° C.

solubility in water | solubility in water (in words) | SMILES
more than 7 g/L |  | O=S(=O)(O)c1ccc(N=Nc2c(O)ccc3ccccc23)cc1 [Acid Orange 7, 4-[(2-hydroxy-1-naphthyl)azo]benzenesulfonate]
above 40 g/L |  | O=[N+]([O-])c1cc([N+](=O)[O-])c2ccc(S(=O)(=O)O)cc2c1O [Acid Yellow 9, 8-hydroxy-5,7-dinitro-2-naphthalenesulfonic acid]
 | readily soluble in water | O=C(O)C1=NN(c2ccc(S(=O)(=O)O)cc2)C(=O)C1N=Nc1ccc(S(=O)(=O)O)cc1 (stereo not shown) [Acid Yellow 23, 4,5-dihydro-5-oxo-1-(4-sulfophenyl)-4-((4-sulfophenyl)azo)-1H-pyrazole-3-carboxylic acid]

SMILES | solubility in water | solubility in water (in words)
Nc1cc(S(=O)(=O)O)cc2cc(S(=O)(=O)O)c(N=Nc3ccccc3)c(O)c12 [Acid Red 33, 5-amino-4-hydroxy-3-(phenylazo)-naphthalene-2,7-disulphonate] | 2500 µg/mL (≈ 5.9 mM) | 
